Where two headings read alike, the source gives them in different places.
Experiments:
[1] = molecular target: Acetylcholinesterase, ACHE (h) (Homo sapiens, UniProt P22303); type: biochemical; details: control galanthamine
[2] = molecular target: T1, Alpha-1A adrenergic receptor, ADRA1A (h) (Homo sapiens, UniProt P35348); details: control WB 4101
T1 sequence (P35348 1-466): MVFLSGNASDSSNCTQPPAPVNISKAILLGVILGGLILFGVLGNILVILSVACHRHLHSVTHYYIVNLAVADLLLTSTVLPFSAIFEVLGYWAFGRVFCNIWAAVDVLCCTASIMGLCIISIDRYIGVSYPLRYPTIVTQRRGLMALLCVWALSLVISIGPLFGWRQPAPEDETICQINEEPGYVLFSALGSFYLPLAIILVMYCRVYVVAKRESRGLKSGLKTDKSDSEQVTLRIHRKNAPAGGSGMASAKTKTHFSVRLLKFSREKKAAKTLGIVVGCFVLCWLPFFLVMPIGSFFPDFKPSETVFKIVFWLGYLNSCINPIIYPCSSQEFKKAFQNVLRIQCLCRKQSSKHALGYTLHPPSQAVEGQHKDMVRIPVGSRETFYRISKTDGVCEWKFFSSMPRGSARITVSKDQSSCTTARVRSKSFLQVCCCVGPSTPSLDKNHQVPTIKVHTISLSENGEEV

[3] = molecular target: Dopamine receptor D2, DRD2 (h) (Homo sapiens, UniProt P14416); details: control 7-OH-DPAT
Chain of Dopamine receptor D2, DRD2 (h) (P14416 whole entry): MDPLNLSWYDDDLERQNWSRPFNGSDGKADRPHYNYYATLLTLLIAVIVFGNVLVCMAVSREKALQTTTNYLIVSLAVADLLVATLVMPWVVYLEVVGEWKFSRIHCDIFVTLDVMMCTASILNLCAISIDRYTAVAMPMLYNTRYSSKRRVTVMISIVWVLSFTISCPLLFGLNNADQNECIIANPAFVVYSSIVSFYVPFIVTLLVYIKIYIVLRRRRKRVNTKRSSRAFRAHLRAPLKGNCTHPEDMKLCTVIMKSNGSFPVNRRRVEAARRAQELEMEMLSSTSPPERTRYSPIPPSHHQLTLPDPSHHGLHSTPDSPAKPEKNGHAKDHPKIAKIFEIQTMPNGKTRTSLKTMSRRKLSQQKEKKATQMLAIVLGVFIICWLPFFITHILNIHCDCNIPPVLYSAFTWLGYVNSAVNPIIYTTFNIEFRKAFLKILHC

[4] = molecular target: T2, Prostaglandin G/H synthase 2, PTGS2 (h) (Homo sapiens, UniProt P35354); experiment: IPP PTGS2 enzymatic activity; type: biochemical; details: control NS398
T2 sequence (P35354 18-604): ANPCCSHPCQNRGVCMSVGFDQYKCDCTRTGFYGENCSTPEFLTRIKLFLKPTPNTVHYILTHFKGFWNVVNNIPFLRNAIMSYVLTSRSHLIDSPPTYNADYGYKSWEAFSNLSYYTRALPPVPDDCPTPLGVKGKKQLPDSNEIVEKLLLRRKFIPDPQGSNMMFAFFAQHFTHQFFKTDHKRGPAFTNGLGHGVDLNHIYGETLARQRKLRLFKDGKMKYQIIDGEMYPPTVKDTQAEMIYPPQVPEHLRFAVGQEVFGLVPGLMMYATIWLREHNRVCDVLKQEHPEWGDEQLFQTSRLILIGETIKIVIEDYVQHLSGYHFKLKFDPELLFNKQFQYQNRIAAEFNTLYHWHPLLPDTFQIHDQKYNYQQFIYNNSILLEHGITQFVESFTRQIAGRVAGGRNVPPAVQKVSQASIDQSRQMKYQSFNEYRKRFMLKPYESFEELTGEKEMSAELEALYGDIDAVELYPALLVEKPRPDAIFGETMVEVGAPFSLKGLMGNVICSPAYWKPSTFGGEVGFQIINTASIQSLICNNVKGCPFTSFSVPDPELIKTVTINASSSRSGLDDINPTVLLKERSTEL

[5] = molecular target: T3, Peroxisome proliferator-activated receptor alpha, PPARA (h) (Homo sapiens, UniProt Q07869); experiment: IPP PPARA coactivator recruitment (agonist); type: biochemical; details: 10 uM, GW 7647 for control
T3 sequence (Q07869 1-468): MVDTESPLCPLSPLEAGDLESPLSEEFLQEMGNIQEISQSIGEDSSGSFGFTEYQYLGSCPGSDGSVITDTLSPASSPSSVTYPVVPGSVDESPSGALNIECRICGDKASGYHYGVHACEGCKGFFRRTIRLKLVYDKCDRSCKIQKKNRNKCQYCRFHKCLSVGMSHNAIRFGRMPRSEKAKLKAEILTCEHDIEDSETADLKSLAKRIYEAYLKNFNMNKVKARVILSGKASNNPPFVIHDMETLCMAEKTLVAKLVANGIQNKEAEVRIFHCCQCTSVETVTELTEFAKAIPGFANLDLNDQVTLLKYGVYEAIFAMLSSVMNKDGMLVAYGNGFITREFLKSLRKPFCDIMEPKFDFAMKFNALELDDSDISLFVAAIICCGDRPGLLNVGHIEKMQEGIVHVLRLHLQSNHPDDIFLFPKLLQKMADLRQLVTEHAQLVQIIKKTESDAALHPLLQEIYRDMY

[6] = molecular target: Cannabinoid receptor 1, CNR1 (h) (Homo sapiens, UniProt P21554); type: binding; details: control CP 55940
Chain of Cannabinoid receptor 1, CNR1 (h) (P21554 whole entry): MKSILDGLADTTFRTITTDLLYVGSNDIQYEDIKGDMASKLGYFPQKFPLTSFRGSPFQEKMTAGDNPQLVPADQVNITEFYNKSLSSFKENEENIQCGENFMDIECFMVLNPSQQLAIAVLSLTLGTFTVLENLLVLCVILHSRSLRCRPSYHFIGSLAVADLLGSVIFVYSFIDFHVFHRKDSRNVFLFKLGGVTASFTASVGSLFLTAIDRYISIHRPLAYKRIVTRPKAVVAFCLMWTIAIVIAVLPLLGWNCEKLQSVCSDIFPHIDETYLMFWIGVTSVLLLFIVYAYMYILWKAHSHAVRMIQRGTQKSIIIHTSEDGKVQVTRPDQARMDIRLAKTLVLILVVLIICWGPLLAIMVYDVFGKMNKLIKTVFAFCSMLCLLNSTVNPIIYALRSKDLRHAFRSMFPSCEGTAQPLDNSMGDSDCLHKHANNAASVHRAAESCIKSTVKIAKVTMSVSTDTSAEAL

[7] = molecular target: Neuronal acetylcholine receptor subunit alpha-4, CHRNA4 (h) (Homo sapiens, UniProt P17787+P43681); details: control nicotine
Chain of Neuronal acetylcholine receptor subunit alpha-4, CHRNA4 (h) (P43681 29-627 limits assumed): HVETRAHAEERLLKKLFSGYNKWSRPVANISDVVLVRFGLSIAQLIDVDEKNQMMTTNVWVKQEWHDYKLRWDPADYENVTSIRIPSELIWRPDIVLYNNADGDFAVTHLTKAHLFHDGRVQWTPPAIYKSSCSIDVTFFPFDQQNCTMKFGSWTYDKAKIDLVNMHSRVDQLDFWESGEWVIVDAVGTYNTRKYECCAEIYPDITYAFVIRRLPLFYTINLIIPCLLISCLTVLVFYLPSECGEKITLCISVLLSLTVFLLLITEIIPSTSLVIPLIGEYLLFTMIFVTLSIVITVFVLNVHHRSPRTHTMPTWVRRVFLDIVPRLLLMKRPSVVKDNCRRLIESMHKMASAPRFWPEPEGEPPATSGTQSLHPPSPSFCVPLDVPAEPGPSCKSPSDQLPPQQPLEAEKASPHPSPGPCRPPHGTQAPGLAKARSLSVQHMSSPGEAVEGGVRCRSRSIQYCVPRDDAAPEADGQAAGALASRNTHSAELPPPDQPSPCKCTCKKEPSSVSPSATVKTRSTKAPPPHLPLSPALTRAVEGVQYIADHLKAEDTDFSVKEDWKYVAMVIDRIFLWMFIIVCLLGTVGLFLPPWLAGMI
Chain of Neuronal acetylcholine receptor subunit alpha-4, CHRNA4 (h) (P17787 26-502): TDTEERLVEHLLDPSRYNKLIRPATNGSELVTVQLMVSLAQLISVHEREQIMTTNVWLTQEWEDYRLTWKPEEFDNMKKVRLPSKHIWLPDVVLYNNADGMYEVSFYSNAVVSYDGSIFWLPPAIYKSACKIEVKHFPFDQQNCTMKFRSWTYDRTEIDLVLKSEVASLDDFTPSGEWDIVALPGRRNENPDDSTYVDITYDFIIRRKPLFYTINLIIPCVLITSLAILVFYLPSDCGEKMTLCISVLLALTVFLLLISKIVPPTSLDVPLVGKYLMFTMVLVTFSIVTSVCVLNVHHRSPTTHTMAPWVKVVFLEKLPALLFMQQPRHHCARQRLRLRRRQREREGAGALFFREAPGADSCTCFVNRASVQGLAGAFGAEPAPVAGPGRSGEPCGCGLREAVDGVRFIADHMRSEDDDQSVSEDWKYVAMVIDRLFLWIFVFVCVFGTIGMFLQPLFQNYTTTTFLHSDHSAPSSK

[8] = molecular target: T4, 5-hydroxytryptamine receptor 1A, HTR1A (h) (Homo sapiens, UniProt P08908); details: control 8-OH-DPAT
T4 sequence (P08908 1-422): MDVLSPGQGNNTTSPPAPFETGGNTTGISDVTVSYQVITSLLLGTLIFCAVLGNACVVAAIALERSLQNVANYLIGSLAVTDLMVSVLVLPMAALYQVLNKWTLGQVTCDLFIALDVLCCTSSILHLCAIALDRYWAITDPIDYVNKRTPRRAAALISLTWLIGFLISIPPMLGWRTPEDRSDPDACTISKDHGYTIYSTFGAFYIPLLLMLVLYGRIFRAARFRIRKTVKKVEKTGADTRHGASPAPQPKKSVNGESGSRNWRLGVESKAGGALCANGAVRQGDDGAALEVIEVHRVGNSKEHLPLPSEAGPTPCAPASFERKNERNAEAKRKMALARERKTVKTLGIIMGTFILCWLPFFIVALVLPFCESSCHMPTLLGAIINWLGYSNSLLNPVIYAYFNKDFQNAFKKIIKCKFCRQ

[9] = molecular target: Sodium-dependent noradrenaline transporter, SLC6A2 (h) (Homo sapiens, UniProt P23975); details: ligand/control protriptyline
Chain of Sodium-dependent noradrenaline transporter, SLC6A2 (h) (P23975 whole entry): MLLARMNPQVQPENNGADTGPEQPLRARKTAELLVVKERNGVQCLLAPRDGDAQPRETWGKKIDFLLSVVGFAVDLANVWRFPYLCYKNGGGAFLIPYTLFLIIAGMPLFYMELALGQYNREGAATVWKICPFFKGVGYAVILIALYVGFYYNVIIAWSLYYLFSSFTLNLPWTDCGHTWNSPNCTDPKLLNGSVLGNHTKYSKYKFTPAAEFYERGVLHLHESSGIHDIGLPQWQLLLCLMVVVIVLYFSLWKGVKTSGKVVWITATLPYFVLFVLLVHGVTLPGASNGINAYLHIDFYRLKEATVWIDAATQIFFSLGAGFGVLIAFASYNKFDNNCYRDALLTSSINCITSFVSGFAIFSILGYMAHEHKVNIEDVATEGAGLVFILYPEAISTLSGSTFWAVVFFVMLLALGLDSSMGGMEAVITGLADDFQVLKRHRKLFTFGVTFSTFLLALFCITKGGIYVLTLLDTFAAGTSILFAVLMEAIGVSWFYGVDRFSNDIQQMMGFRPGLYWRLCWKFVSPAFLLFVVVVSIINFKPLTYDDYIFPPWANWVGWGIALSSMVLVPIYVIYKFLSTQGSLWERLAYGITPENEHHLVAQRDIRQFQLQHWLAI

MCF7 cells = experiment: High-throughput transcriptomics (HTTr, TempO-Seq), MCF7, 24 h; type: cell-based, human; details: MCF-7; for pod_httr_bifrost PoD: HTTr BIFROST PoD; for podl_path_minbmd PoD: HTTr minimum pathway BMD(L)
Description: HepG2, HepaRG, and MCF7 cells were treated with each compound for 24 h across a dose range of 7 concentrations and lysed using TempO-Seq lysis buffer (BioSpyder Technologies, proprietary kit, see [Middleton et al. 2022] for method details). Sequencing was performed using TempO-Seq (BioClavis) version 2 of the human whole transcriptome panel and analyzed as described previously in Middleton et al.

[10] = molecular target: Mu-type opioid receptor, OPRM1 (h) (Homo sapiens, UniProt P35372); details: control DAMGO
Chain of Mu-type opioid receptor, OPRM1 (h) (P35372 whole entry): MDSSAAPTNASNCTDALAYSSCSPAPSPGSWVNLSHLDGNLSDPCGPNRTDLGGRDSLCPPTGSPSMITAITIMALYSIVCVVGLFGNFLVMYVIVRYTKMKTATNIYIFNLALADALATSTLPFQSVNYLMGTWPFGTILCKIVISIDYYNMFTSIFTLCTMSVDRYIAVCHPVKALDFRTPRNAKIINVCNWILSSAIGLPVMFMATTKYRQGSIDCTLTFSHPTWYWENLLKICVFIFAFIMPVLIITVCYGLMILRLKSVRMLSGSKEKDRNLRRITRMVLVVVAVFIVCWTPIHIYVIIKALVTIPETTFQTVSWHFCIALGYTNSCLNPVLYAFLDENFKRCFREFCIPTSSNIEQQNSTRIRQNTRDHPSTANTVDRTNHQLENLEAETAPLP

Chain of Acetylcholinesterase, ACHE (h) (P22303 32-614): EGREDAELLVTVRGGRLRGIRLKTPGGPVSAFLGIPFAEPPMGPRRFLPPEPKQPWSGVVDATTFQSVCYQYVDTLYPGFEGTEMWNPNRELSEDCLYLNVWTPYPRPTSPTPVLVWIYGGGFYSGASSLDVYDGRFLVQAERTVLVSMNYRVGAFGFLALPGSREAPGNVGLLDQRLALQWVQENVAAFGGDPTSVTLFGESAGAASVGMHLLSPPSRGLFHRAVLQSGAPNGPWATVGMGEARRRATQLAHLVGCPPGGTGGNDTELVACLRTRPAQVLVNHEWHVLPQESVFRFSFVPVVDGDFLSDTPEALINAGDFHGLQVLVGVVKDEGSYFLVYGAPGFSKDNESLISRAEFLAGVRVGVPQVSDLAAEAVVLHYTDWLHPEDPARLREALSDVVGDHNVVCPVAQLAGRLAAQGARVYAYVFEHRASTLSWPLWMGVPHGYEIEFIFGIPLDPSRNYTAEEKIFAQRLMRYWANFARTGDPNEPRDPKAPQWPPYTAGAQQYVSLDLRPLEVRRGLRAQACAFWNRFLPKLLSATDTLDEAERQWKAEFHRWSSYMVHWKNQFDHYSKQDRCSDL

| Compound | Enzymatic activity ([1]; IPP screening at 10 uM) [%] | Specific binding ([2]; IPP screening at 10 uM) [%] | Specific binding ([3]; IPP screening at 10 uM) [%] | Enzymatic activity ([4]; IPP screening at 10 uM) [%] | IPP screening %, Coactivator recruitment [5] [%] | Specific binding ([6]; IPP screening at 10 uM) [%] | Specific binding ([7]; IPP screening at 10 uM) [%] | Specific binding ([8]; IPP screening at 10 uM) [%] | IPP screening %, Specific binding ([9]; 10 uM) [%] | pod_httr_bifrost PoD (MCF7 cells) [µM] | podl_path_minbmd PoD (MCF7 cells) [µM] | Specific binding ([10]; IPP screening at 10 uM) [%] | other results |
| --- | --- | --- | --- | --- | --- | --- | --- | --- | --- | --- | --- | --- | --- |
| CC(C)(C)c1ccc(CCOc2ncnc3ccccc23)cc1 [Fenazaquin, 4-[2-(4-tert-Butylphenyl)ethoxy]quinazoline] | -0.7 | 35.8 | 16.5 | 0.8 | 1.2 | 57.0 | -6.4 | -11.2 | 69.3 | 0.001313 | 0.3873 | 16.1 | – |
| CCOP(=S)(OCC)Oc1nc(Cl)c(Cl)cc1Cl [Chlorpyrifos, O,O-Diethyl O-(3,5,6-trichloropyridin-2-yl) phosphorothioate] | -10.5 | 5.4 | 12.6 | -4.1 | – | 26.0 | -6.9 | 11.6 | 63.4 | 0.08218 | 3.743 | 29.9 | – |
| CC1(C)O[C@@H]2[C@@H](CO[C@@]3(COS(N)(=O)=O)OC(C)(C)O[C@@H]23)O1 [Topiramate, [(3aS,5aR,8aR,8bS)-2,2,7,7-Tetramethyltetrahydro-2H,3aH,7H-bis[1,3]dioxolo[4,5-b:4',5'-d]pyran-3a-yl]methyl sulfamate (non-preferred name)] | – | – | – | – | – | – | – | – | – | 22.6252 | 512.687 | – | Enzymatic activity ([1]; IPP screening at 100 uM): -0.1%; Specific binding ([2]; IPP screening at 100 uM): 2.2%; Specific binding ([3]; IPP screening at 100 uM): 13.3%; Enzymatic activity ([4]; IPP screening at 100 uM): 4.1%; Specific binding ([6]; IPP screening at 100 uM): 10.5%; Specific binding ([7]; IPP screening at 100 uM): 3.3%; Specific binding ([8]; IPP screening at 100 uM): 18.5%; IPP screening %, Specific binding ([9]; 100 uM): 5.7%; Specific binding ([10]; IPP screening at 100 uM): 0.9% |
| mixture of 2- and 3-tert-butyl-4-methoxyphenol [Butylated Hydroxyanisole] | 5.9 | 20.2 | -16.2 | 62.4 | -0.3 | -27.5 | -5.0 | -7.7 | 13.9 | – | – | 7.1 | – |
| (4S,4aR,5S,5aR,6S,12aS)-4-(Dimethylamino)-3,5,6,10,12,12a-hexahydroxy-6-methyl-1,11-dioxo-1,4,4a,5,5a,6,11,12a-octahydrotetracene-2-carboxamide--hydrogen chloride (1/1) [Oxytetracycline hydrochloride] | – | 6.2 | 22.7 | 14.5 | -0.7 | 25.7 | -2.5 | 1.5 | -8.5 | – | – | 3.3 | – |
